According to patent US20210130291A1, “METHODS FOR TREATING DIABETES USING VDAC1 INHIBITORS” (THE NATIONAL INSTITUTE FOR BIOTECHNOLOGY IN THE NEGEV LTD., priority 2016, published 2021):
Entries after “also recorded” stand apart in the source; their conditions may differ. One block for each molecule: values may come before it.

What was measured:
[1] = system: VDAC1 expression in INS-1 cells; assay: VDAC1 expression in INS-1 cells cultured at 5 or 20 mM glucose; type: cell-based, rat
Protocol: INS-1 832/13 cells (kindly donated by Dr. C. B. Newgaard, Duke University, USA) were cultured in RPMI-1640 containing 11.1 mM D-glucose and supplemented with 10% fetal bovine serum, 100 U/ml penicillin (Gibco), 100 µg/ml streptomycin (Gibco), 10 mM HEPES, 2 mM glutamine, 1 mM sodium pyruvate, and 50 µM β-mercaptoethanol (Sigma), at 37° C. in a humidified atmosphere containing 95% air and 5% CO2. For VDAC1 over-expression by VDAC1 plasmid (1 μg/ml) and VDAC2 down-regulation by and siRNA, INS1 832/13 cells were cultured to 60% confluence. To study the long-term effects (24-72 h) of high glucose (20 mM) (glucotoxicity) compared to basal glucose (5 mM), INS-1 832/13 cells were cultured with RPMI 1640 complete media (Ahmed, M., et al., 2010. Islets 2, 283-292) in the presence or absence of indicated agents and thereafter VDAC1 expression, cell viability and function was measured.
Total RNA from handpicked mouse islets, human donor islets (Diabetic and non-diabetic) or INS1 832/13 cells were extracted using RNAeasy (Qiagen, Hilden, Germany). RNA ([…]) was used for cDNA synthesis with SuperScript (Invitrogen, Carlsbad, Calif., USA). Concentration and purity of total RNA was measured with a NanoDrop ND-1000 spectrophotometer (A260/A280>1.9 and A260/A230>1.4) (NanoDrop Technologies, Wilmington, Del.) and RNA Quality Indicator (RQI) higher than 8.0 (Experion Automated Electrophoresis, Bio-Rad, USA) was considered to be high-quality total RNA preparations. A 10 μl of reaction mixture with 20 ng cDNA, 5 μl TaqMan mastermix (Applied Biosystems, Foster City, Calif., USA), and 100 nM TagMan gene expression assay were run in a 7900HT Fast Real-Time System (Applied Biosystems). The qPCR was carried out as follows: 50° C. for 2 minutes, 95° C. for 10 minutes, 40 cycles of 95° C. for 15 seconds, and 60° C. for 1 minute. The amount of mRNA was calculated relative to the amount of housekeeping genes (GAPDH, PPIA or HPRT) mRNA in the same sample by the formula X0/R0=2CtR-CtX, where X0 is the original amount of mRNA for the gene of interest, R0 is the original amount of HPRT mRNA, CtR the Ct value for HPRT, and CtX the Ct value for the gene of interest. Primer sequences are provided upon request.

[2] = target: T1, plasma membrane targeted VDAC1 (plVDAC1) (Mus musculus, UniProt Q60932); assay: ATP release and ATP content of INS-1 cells transfected with plasma membrane targeted VDAC1; type: cell-based; conditions: for ATP release: racemate and enantiomers (FIG. 9a)
T1 construct: expressed in transfected cells; host or cells: INS-1 832/13 cells (rat insulinoma), transient transfection; plasmid a gift from Dr. R. Buettner
Protocol: (§1) ATP release from isolated mouse or human islets or from INS-1 cells after transfection with mitochondrial targeted VDAC1 (mtVDAC1) or plasma membrane targeted VDAC1 (plVDAC1) plasmids was determined using a luminometric assay kit according to manufacturer's recommendation (Biovision). After incubation of islets (50/vial) or INS-1 cells for 60 min, an aliquot of the media was removed for subsequent measurements of released ATP. Then the islets or INS-1 cells were washed 3 times and the lysates were used for measurements of ATP and protein contents followed the protocol provided by the vendor.
INS-1 cells were transiently transfected with a plasmid encoding plasma membrane targeted VDAC1 (pVDAC1) as described in the Material and Method section herein above and in Example 3 (see also Buettner et al 2000. PNAS 97:3201-3206). After transfection (24-32 h and 2-4 h recovery in normal culture medium, RPMI 1640 with complete supplement) the INS-1 cells were washed followed by preincubation in SAB-buffer (See Material and Method above) containing 2.8 mM glucose. The final 1 h incubation was performed in SAB-buffer containing 1 mM glucose and the VDAC1 inhibitory compounds to be tested. At the end, the cells were lysed using lysis buffer, sonicated and the lysate as well as the incubation medium were analyzed for ATP content using a commercially available kit (Biovision, K354-100). Cellular protein content was analyzed by Pierce™ BCA protein assay kit (Thermo Scientific, USA).

islets from T2D donors = assay: ATP content and GSIS in islets from T2D donors, acute addition of VDAC1 inhibitors; type: cell-based, human
Excerpt: Human pancreatic islets were obtained through collaboration between Human Tissue Laboratory within Lund University Diabetes Centre (LUDC) and the Nordic Network for Clinical Islet Transplantation (Prof. Olle Korsgren, Uppsala University, Sweden). Donors were grouped according to HbA1c i.e. less than 6% (ND), between 6% and 6.5% (IGT), higher than 6.5% or history of diabetes (T2D). The human islets (70-90% purity) had been cultured in CMRL 1066 (ICN Biomedicals, Costa Mesa, Calif.) supplemented with 10 mM HEPES, 2 mM L-glutamine, […] gentamicin, […] fungizone (Gibco, BRL, Gaithersburg, Md.), 20 μg/ml ciprofloxacin (Bayer Healthcare, Leverkusen, Germany) and 10 mM nicotinamide at 37° C. (5% CO2) for 1 to 5 days prior to the arrival in the laboratory. The islets were then hand-picked under stereomicroscope prior to use. All procedures using human islets were approved by the ethical committees at Uppsala and Lund Universities, Sweden.
(§2) Human pancreatic islets were collected under a stereomicroscope at room temperature and cultured at 5.5 or 20 mM glucose in the absence or presence of test agents for 72 h. Thereafter the islets were washed and preincubated for 30 min at 37° C. in Krebs Ringer bicarbonate buffer, pH 7.4, supplemented with N-2 hydroxyethylpiperazine-N′-2-ethanesulfonic acid (10 mM), 0.1% bovine serum albumin, and 1 mM glucose. Each incubation vial contained 12 islets in 1.0 ml KRB buffer solution and treated with 95% O2 and 5% CO2 to obtain constant pH and oxygenation. After preincubation, the buffer was changed to a medium containing either 1 mM or 16.7 mM glucose. The islets were then incubated for 1 h at 37° C. in a metabolic shaker (30 cycles per min). Immediately after incubation an aliquot of the medium was removed for analysis of insulin and the islets were incubated in acid-ethanol for insulin content determination by radioimmunoassay.
as §1

islets of C57/BL mice = assay: ATP content and GSIS in islets of control C57/BL mice; type: cell-based, mouse; conditions: VDAC1 antibody 10 nM
Protocol: 5 weeks old db/db mice and control (C57/bl) (Janvier Laboratory, France), weighing 18-25 g, were used throughout the experiments. They were given a standard pellet diet (B&K) and tap water ad libitum. The experimental procedures were approved by the Ethics Committee for Animal Research at Lund University. Isolation of pancreatic islets was performed by retrograde injection of a collagenase solution via the bile-pancreatic duct and islets were then collected under a stereomicroscope at room temperature.
as §2, §1

[3] = plVDAC1-transfected INS-1 cells, 1 h at 1 mM glucose

T1 sequence (Q60932 whole entry): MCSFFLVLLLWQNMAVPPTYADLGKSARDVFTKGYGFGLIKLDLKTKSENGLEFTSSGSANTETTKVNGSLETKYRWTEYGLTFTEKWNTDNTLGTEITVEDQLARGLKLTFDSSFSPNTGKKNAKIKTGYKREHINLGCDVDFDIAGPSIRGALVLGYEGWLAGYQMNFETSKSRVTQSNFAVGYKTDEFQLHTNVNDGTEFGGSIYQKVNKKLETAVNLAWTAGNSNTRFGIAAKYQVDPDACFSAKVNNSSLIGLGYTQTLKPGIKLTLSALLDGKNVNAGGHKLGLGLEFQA

Structure (SMILES): O=CC[C@@H](O)[C@H](O)[C@H](O)CO [2-deoxyglucose, reference compound]
VDAC1 expression ([1]; INS-1 cells, 2-deoxyglucose, data not shown): increased VDAC1 expression

Structure (SMILES): O=C1CC(N2CCC(Nc3ccc(OC(F)(F)F)cc3)CC2)C(=O)N1c1ccc(Cl)cc1 (centres unmarked) [AKOS, 1-(4-Chloro-phenyl)-3-[4-(4-trifluoromethoxy-phenylamino)-piperidin-1-yl]-pyrrolidine-2,5-dione]
ATP release (loss of cellular ATP) ([2]; plVDAC1-transfected INS-1 cells, 1 h at 1 mM glucose, VDAC1-ab 10 nM, metformin, AKOS, VBIT-4 20 μM each (FIG. 4c)): prevented; also recorded: rapidly inhibited
GSIS (islets from T2D donors; T2D islets, acute addition 1 h (FIG. 6f)): increased in parallel with the improved ATP generation
islet ATP content (islets from T2D donors; islets from 5 T2D donors and one IGT donor, 1 h, at 1 and 16.7 mM glucose (FIG. 6e)): increased islet ATP content
GSIS (islets of C57/BL mice; others 20 μM (FIG. 7e)): do not affect
ATP content (islets of C57/BL mice; others 20 μM (FIG. 7d)): do not affect
glucose evoked VDAC1 upregulation (total VDAC1 expression) ([1]; INS-1 cells cultured 72 h at 20 mM glucose, VDAC1ab 10 nM, metformin, AKOS, VBIT-4 20 μM each (FIG. 4l, 4m)): abrogated the glucose evoked VDAC1 upregulation

Structure (SMILES): CC1(C)C(=O)N([C@H]2CCc3c(O)cccc32)c2nc(Nc3cccc(CN4CCCC4)c3)ncc21 [MRT199665, reference compound]
effect of AMPK inhibitor on metformin-inhibited ATP release ([2]; plVDAC1 transfected INS-1 cells, MRT199665 5 μM with metformin (FIG. 4i)): neither attenuated

Other lines, results leading:

ATP release [2, 3]: efficiently inhibit ATP release
cellular ATP content ([2]; plVDAC1-transfected INS-1 cells, 1 h at 1 mM glucose, racemate and enantiomers (FIG. 9b)): increase cellular ATP content
Structure (SMILES): O=C(CC(CO)N1CCN(c2ccc(OC(F)(F)F)cc2)CC1)Nc1ccc(Cl)cc1 (centres unmarked) [VBIT-4-1]

ATP release [2, 3]: efficiently inhibit ATP release
Structure (SMILES): O=C(CC(CO)N1CCN(c2ccc(OC(F)(F)F)cc2)CC1)Nc1ccc(Cl)cc1 (centres unmarked) [VBIT-4-2]
